Experimental data taken from patent US20250313547A1, “CEREBLON LIGANDS AND BIFUNCTIONAL COMPOUNDS COMPRISING THE SAME” (Arvinas Operations, Inc., priority 2017, published 2025).

Legend:
[1] = molecular target: immobilized CRBN protein (cereblon) (Homo sapiens (Human), UniProt Q96SW2); assay: Surface plasmon resonance (SPR) KD determination on immobilized cereblon; settings: average of at least N=2, 1:1 fit, read-out: KD Binding to immobilized CRBN protein in SPR assay
Method: The surface plasmon resonance (SPR) experiments were conducted on a Biacore3000 (GE Healthcare). Myc-tagged cereblon was immobilized on a carboxymethylated dextran surface (CM5) amine coupled to anti-Myc antibody to recognize the Myc tag. His-tagged cereblon protein was immobilized on a carboxymethylated dextran surface with nitriloacetic acid (NTA), taking advantage of NTA/Ni^2+ chelation. The prepared surface was allowed to equilibrate over three hours in running buffer (10 mM HEPES buffer @pH 7.4, 150 mM NaCl, 0.005% P20,2% DMSO).
All compounds were prepared in 100% DMSO stock plates with a top concentration of 5 mM in a 3× serial dilution. Compounds were transferred from the stock plate to the assay plate and diluted into running buffer containing no DMSO. All compounds were run as a six-concentration series with a final assay top concentration of 100 μM.
Data analysis was performed in Scrubber 2 (BioLogic software, Campbell, Australia). Blanks were subtracted and data was corrected for DMSO against a standard DMSO curve.

[2] = molecular target: Estrogen receptor-alpha (ERα) (Homo sapiens (Human), UniProt P03372); assay: ERα degradation assay using In-Cell Western in MCF7 cells; type: cell-based; settings: 5 day incubation, read-out: ER degradation DC50
Sequence of Estrogen receptor-alpha (ERα) (P03372 whole entry): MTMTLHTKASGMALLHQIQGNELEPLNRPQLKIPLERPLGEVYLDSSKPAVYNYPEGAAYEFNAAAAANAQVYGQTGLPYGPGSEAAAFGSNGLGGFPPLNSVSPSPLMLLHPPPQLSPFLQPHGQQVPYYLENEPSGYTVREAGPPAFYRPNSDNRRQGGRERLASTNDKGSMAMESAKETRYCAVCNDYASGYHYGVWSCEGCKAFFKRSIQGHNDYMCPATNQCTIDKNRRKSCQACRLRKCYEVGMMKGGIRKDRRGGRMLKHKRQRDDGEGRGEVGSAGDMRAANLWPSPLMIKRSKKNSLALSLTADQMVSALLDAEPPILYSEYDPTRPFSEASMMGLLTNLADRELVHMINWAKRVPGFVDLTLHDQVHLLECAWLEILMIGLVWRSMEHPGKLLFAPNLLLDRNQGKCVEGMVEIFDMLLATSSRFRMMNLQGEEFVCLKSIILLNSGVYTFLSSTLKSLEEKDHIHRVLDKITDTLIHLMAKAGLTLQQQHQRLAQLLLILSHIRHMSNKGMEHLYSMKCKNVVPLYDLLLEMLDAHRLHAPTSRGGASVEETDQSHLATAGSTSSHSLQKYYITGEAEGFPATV
Method: 3. Estrogen Receptor-Alpha (ERα) Degradation Assay Using in-Cell Western™ Assay for Table 5.
Degradation of ERα by claimed compounds were determined in MCF7 cells using an In-Cell Western™ assay. Briefly, MCF7 cells were plated in 96-well plates (2000 cells per well in 100 μl media) and incubated at 37° C. under an atmosphere of 5% CO2 in a humidified incubator overnight. One-hundred (100) μl of media containing test compound (at 2× concentration) was added to the appropriate wells to provide 11 serially decreasing concentrations (top final concentration, 1 μM then 3-fold less for the next 10 concentrations); a vehicle control (DMSO) was also added for each compound. For each experiment, all compounds were assayed in duplicate plates. Cells were then incubated for 3 or 5 days in the above-mentioned environment. The assay was terminated by removal of media, a single wash with ice-cold PBS and the addition of 50 μl paraformaldehyde (PFA: 4% in PBS). After 15 minutes in PFA at room temperature, the cells were permeabilized in Tris-phosphate-buffered saline with Tween (0.1%) (TBST) supplemented with Triton X-100 (0.5%) for 15 minutes. Cells were then blocked in BSA (TBST with BSA, 3%) for one hour. […] The cells were incubated overnight at 4° C. The cells were then washed thrice with TBST at room temperature and then incubated with anti-rabbit and anti-mouse fluorescently-labelled secondary antibodies (IRDye®; LI-COR; Lincoln, NE) in LI-COR blocking buffer (Catalog #927-50000) for one hour at room temperature. Following 3 washes with TBST, the buffer was removed and the plates were read on an Odyssey® infrared imaging system (LI-COR®; Lincoln, NE) at 700 nm and 800 nm. Using commercial software (ImageStudio™; LI-COR, Lincoln, NE), the staining intensity for ERα and tubulin in each well was quantified and exported for analysis. For each data point, ERα intensity was normalized to tubulin intensity and for each compound all normalized intensity values were normalized to the vehicle control. DC50 and Dmax values were determined following a 4-parameter IC50 curve fit using ACAS dose response module (McNeil & Co Inc.).

androgen receptor (AR) = assay: AR ELISA assay (androgen receptor degradation); type: cell-based; settings: LNCaP and/or VCaP cells, 5 hours drug treatment; for AR Dmax: % degraded
Procedure, shortened: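 VCaP cells (LNCaP in some cases) grown at least 3 days in phenol red-free RPMI with 5% charcoal-stripped FBS, then treated with PROTACs in 0.01% DMSO for 5 h. AR level in lysates measured by sandwich ELISA, TMB read at 450 nm.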

Sequence of immobilized CRBN protein (cereblon) (Q96SW2 whole entry): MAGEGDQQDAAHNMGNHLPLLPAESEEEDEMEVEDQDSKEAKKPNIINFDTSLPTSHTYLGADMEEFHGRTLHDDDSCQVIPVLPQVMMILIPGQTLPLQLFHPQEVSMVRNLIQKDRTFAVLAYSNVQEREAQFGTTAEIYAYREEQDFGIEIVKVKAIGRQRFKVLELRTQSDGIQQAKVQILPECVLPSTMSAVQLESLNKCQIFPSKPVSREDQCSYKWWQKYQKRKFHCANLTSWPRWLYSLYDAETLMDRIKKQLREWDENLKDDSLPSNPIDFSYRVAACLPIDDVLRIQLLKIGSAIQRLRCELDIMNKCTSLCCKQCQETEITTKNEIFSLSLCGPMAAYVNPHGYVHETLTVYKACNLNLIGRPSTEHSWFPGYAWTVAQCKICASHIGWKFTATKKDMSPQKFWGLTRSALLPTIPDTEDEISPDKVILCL

Row | Structure (SMILES) | Kd [1] [µM] | further results
1 | CNc1ccccc1C(=O)NCCN1C(=O)CCNC1=O [compound 11] | > 100 | –
2 | NC(=O)c1ccc(N2C(=O)c3ccccc3C2=O)c(=O)[nH]1 [compound 42] | > 100 | –
3 | O=C1CCC(N2C(=O)c3ccc(F)c(F)c3C2=O)C(=O)N1 (stereo not shown) [compound 9] | 1 to 10 | –
4 | CC1(C)C(=O)NC(=O)N1C1CC2CCCCN2C1=O (stereo not shown) [compound 22] | > 100 | –
5 | Cc1cc(C(N)=O)[nH]c(=O)c1N1C(=O)c2ccccc2C1=O [compound 41] | > 100 | –
6 | CCOc1ccn(C2CCC(=O)NC2=O)c(=O)c1 (stereo not shown) [compound 31] | > 100 | –
7 | O=C1c2ccccc2C(=O)N1c1c[nH]c(=O)[nH]c1=O [compound 26] | > 100 | –
8 | O=C1CCC(N2C(=O)c3ccccc3C2=O)C2(COC2)N1 (stereo not shown) [compound 14] | > 100 | –
9 | O=C1CCC(N2CC(c3ccc(N4CCN(CC5CCN(c6ccc([C@@H]7c8ccc(O)cc8CC[C@@H]7c7ccccc7)cc6)CC5)CC4)cc3)=CC2=O)C(=O)N1 (stereo partly drawn) [PROTAC-89, 3-[3-[4-[4-[[1-[4-[(1R,2S)-6-hydroxy-2-phenyl-tetralin-1-yl]phenyl]-4-piperidyl]methyl]piperazin-1-yl]phenyl]-5-oxo-2H-pyrrol-1-yl]piperidine-2,6-dione] | – | DC50 [2]: 0.001 to 0.01 µM
10 | Cc1c(N2CCC(=O)NC2=O)cnc2ccccc12 [compound 27] | > 100 | –
11 | O=CN1CCC(N2C(=O)c3ccccc3C2=O)C(=O)N1 (stereo not shown) [compound 19] | > 100 | –
12 | O=C1CCC(NC(=O)c2ccc(N3CCN(CCCCCOc4ccc([C@@H]5c6ccc(O)cc6CC[C@@H]5c5ccccc5)cc4)CC3)cn2)C(=O)N1 (mixture of isomers) [PROTAC-91, rac-N-(2,6-dioxopiperidin-3-yl)-5-(4-(5-(4-((1R,2S)-6-hydroxy-2-phenyl-1,2,3,4-tetrahydronaphthalen-1-yl)phenoxy)pentyl)piperazin-1-yl)picolinamide] | – | DC50 [2]: 0.001 to 0.01 µM
13 | O=C1CCC(N2C(=O)c3cc(F)c(NCCCCCCO)cc3C2=O)C(=O)N1 (stereo not shown) [compound 3] | 10 to 100 | –
14 | O=c1ccn([C@H]2C[C@H](O)[C@@H](CO)O2)c(=O)[nH]1 [compound 37] | > 100 | –
15 | N#Cc1cn(-c2cnc3ccccc3c2)c(=O)[nH]c1=O [compound 23] | 10 to 100 | –
16 | O=C1CCC(N2Cc3cc(NCCCCCCO)c(F)cc3C2=O)C(=O)N1 (stereo not shown) [compound 5] | 10 to 100 | –
17 | Cc1cn(-c2cccnc2)c(=O)[nH]c1=O [compound 39] | > 100 | –
18 | O=C1CCN(c2cncc3ccccc23)C(=O)N1 [compound 32] | 1 to 10 | –
19 | O=C1CCC(N2C(=O)c3c(F)ccc(F)c3C2=O)C(=O)N1 (stereo not shown) [compound 8] | > 100 | –
20 | O=C1CCC(N2Cc3c(ccc(F)c3OCCCCCCO)C2=O)C(=O)N1 (stereo not shown) [compound 4] | 10 to 100 | –
21 | O=C1NC(C(F)(F)F)CCC1N1C(=O)c2cccc(F)c2C1=O (stereo not shown) [compound 6] | > 100 | –
22 | O=C1CCC(N2Cc3ccccc3C2=O)C2(COC2)N1 (stereo not shown) [compound 20] | > 100 | –
23 | O=C1CCC(n2ncc(N3CCN(CCCCCOc4ccc([C@@H]5c6ccc(O)cc6CC[C@@H]5c5ccccc5)cc4)CC3)cc2=O)C(=O)N1 (mixture of isomers) [PROTAC-100, rac-3-(4-(4-(5-(4-((1R,2S)-6-hydroxy-2-phenyl-1,2,3,4-tetrahydronaphthalen-1-yl)phenoxy)pentyl)piperazin-1-yl)-6-oxopyridazin-1(6H)-yl)piperidine-2,6-dione] | – | DC50 [2]: 0.001 to 0.01 µM
24 | O=C1CN(C2Cc3ccccc3C2=O)C(=O)N1 (stereo not shown) [compound 35] | > 100 | –

Row | Structure (SMILES) | Kd [1] [µM] | further results
25 | Cc1cc(C#N)[nH]c(=O)c1N1C(=O)c2ccccc2C1=O [compound 43] | 10 to 100 | –
26 | CCOc1cnn(C2CCC(=O)NC2=O)c(=O)c1Cl (stereo not shown) [compound 15] | > 100 | –
27 | O=C1c2cccc(F)c2C(=O)N1c1ccc(C(F)(F)F)[nH]c1=O [compound 7] | > 100 | –
28 | O=c1ccn(-c2cncc3ccccc23)c(=O)[nH]1 [compound 34] | 10 to 100 | –
29 | CNc1ccccc1C(=O)NCCn1ccc(=O)[nH]c1=O [compound 12] | > 100 | –
30 | O=C1NCC(N2C(=O)c3ccccc3C2=O)C(=O)N1 (stereo not shown) [compound 25] | > 100 | –
31 | O=C1c2ccccc2C(=O)N1CCn1ccc(=O)[nH]c1=O [compound 16] | > 100 | –
32 | CCOc1cc(=O)n(C2CCC(=O)NC2=O)cn1 (stereo not shown) [compound 29] | 10 to 100 | –
33 | O=C1CCC(N2C(=O)c3ccc(F)cc3C2=O)C(=O)N1 (stereo not shown) [compound 17] | > 100 | –
34 | N#Cc1ccc(N2C(=O)c3ccccc3C2=O)c(=O)[nH]1 [compound 44] | 10 to 100 | –
35 | O=c1ccn(-c2cnc3ccccc3c2)c(=O)[nH]1 [compound 33] | > 100 | –
36 | O=C1NC(=O)C(N2C(=O)c3cccc(F)c3C2=O)N1 (stereo not shown) [compound 24] | > 100 | –
37 | Cc1c(-n2ccc(=O)[nH]c2=O)cnc2ccccc12 [compound 28] | 10 to 100 | –
38 | CC1Nc2c(OCCCCCN3CCN(c4ccc(C(=O)N[C@H]5C(C)(C)[C@H](Oc6ccc(C#N)c(Cl)c6)C5(C)C)cn4)CC3)cccc2C(=O)N1C1CCC(=O)NC1=O (mixture of isomers) [PROTAC-28, rac-N-((1r,3r)-3-(3-chloro-4-cyanophenoxy)-2,2,4,4-tetramethylcyclobutyl)-6-(4-(5-((3-(2,6-dioxopiperidin-3-yl)-2-methyl-4-oxo-1,2,3,4-tetrahydroquinazolin-8-yl)oxy)pentyl)piperazin-1-yl)nicotinamide] | – | AR Dmax (androgen receptor (AR)): C (C <= 50); DC50 (androgen receptor (AR)): ≥ 0.1 µM
39 | CN1CC(N2C(=O)c3ccccc3C2=O)C(=O)NC1=O (stereo not shown) [compound 18] | > 100 | –
40 | O=c1ccn(-c2cccnc2)c(=O)[nH]1 [compound 40] | 10 to 100 | –
41 | CCOc1cnn(C2CCC(=O)NC2=O)c(=O)c1 (stereo not shown) [compound 30] | 1 to 10 | –
42 | N#Cc1cn(-c2cccnc2)c(=O)[nH]c1=O [compound 38] | > 100 | –
43 | Cc1ccncc1-n1cc(C#N)c(=O)[nH]c1=O [compound 36] | > 100 | –
44 | CC1(C)[C@H](NC(=O)c2ccc(N3CCC(CN4CCN(c5ccc6c(c5)C(=O)N(C5CC(=O)NC5=O)C6=O)CC4)CC3)cc2)C(C)(C)[C@H]1Oc1ccc(C#N)c(Cl)c1 (stereo partly shown) [PROTAC-66, N-((1r,3r)-3-(3-chloro-4-cyanophenoxy)-2,2,4,4-tetramethylcyclobutyl)-4-(4-((4-(2-(2,5-dioxopyrrolidin-3-yl)-1,3-dioxoisoindolin-5-yl)piperazin-1-yl)methyl)piperidin-1-yl)benzamide] | – | AR Dmax (androgen receptor (AR)): C (C <= 50); DC50 (androgen receptor (AR)): ≥ 0.1 µM
45 | CC1(C)[C@H](NC(=O)c2ccc(CCCCN3CCC4(CC3)CC(=O)N(C3CCC(=O)NC3=O)C4=O)cc2)C(C)(C)[C@H]1Oc1ccc(C#N)c(Cl)c1 (mixture of isomers) [PROTAC-78, rac-N-((1r,3r)-3-(3-chloro-4-cyanophenoxy)-2,2,4,4-tetramethylcyclobutyl)-4-(4-(2-(2,6-dioxopiperidin-3-yl)-1,3-dioxo-2,8-diazaspiro[4.5]decan-8-yl)butyl)benzamide] | – | AR Dmax (androgen receptor (AR)): C (C <= 50); DC50 (androgen receptor (AR)): ≥ 0.1 µM
46 | CNc1ccccc1C(=O)NCCN1CCC(=O)NC1=O [compound 10] | > 100 | –
47 | CC1(C)[C@H](NC(=O)c2ccc(CCCCN3CCN(c4cnn(C5CCC(=O)NC5=O)c(=O)c4)CC3)nc2)C(C)(C)[C@H]1Oc1ccc(C#N)c(Cl)c1 (stereo partly shown) [PROTAC-61, N-((1r,3r)-3-(3-chloro-4-cyanophenoxy)-2,2,4,4-tetramethylcyclobutyl)-6-(4-(4-(1-(2,6-dioxopiperidin-3-yl)-6-oxo-1,6-dihydropyridazin-4-yl)piperazin-1-yl)butyl)nicotinamide] | – | AR Dmax (androgen receptor (AR)): B (50 < B <= 75); DC50 (androgen receptor (AR)): < 0.001 µM
48 | Cn1cc(N2C(=O)c3ccccc3C2=O)c(=O)[nH]c1=O [compound 21] | > 100 | –
